# Reference: ChEMBL document CHEMBL1137626, “Identifying common metalloprotease inhibitors by protein fold types using Fourier transform mass spectrometry” (Bioorg Med Chem Lett, 2007)
# Assay: Inhibition of thermolysin by enzcheck protease assay
SMILES,IC50 [µM],Ki [µM]
CCCCC[C@H](CC(=O)NO)C(=O)N[C@H](C(=O)N1CCC[C@H]1CO)C(C)C [ACTINONIN],18.3,4.88
CC(C)C[C@H](NP(=O)(O)O[C@@H]1O[C@@H](C)[C@H](O)[C@@H](O)[C@H]1O)C(=O)N[C@@H](Cc1c[nH]c2ccccc12)C(=O)O [PHOSPHORAMIDON],13.8,6.98
